# Measurements published in PubChem BioAssay (NCI).
# Values joined by “and” are separate entries in the source; they are usually repeats but may differ in a detail not shown here. Equal values may be shown once.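 Assay format: 96-well plates, 48-hour exposure. Abbreviation: GI50, concentration required for 50% inhibition of growth. TGI: concentration producing complete growth inhibition.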
# Test system: MDA-MB-468 breast
# Experiment: DTP human tumour cell line panel, 48 h
SMILES,GI50,TGI
CCOC(=O)C1(Cc2ccc(C)cc2)Cc2ccc(C)cc2C1=O (centres undefined),10400 nM,37400 nM
Cc1cc(N(CCCl)CCCl)ccc1C=Nc1cccnc1,71.2 nM,521 nM
COc1ccc(-c2cc3c4c(nc5ccccc5c4c2)CC(c2cc(OC)c(OC)c(OC)c2)O3)cc1 (centres undefined),2630 nM,10500 nM
COc1ccc2c(c1)Oc1nc(N)c(C#N)c(N)c1C2Sc1ccc(SC)cc1 (centres undefined),1750 nM,3590 nM
COc1ccc(/C=C2/CN(C(=O)c3ccccc3F)C/C(=C\c3ccc(OC)cc3)C2=O)cc1,1910 nM,4490 nM
CO/N=C(\c1ccccc1)c1cnn(-c2ccccc2)c1N,> 25000 nM,> 25000 nM
CN(C(=O)c1ccc(F)cc1C(F)(F)F)C1CCN(c2nnc(-c3ccnn3C)c3ccccc23)CC1,7100 nM,61400 nM
FC(F)(F)c1cc(Nc2ccc3c(OCCCN4CCOCC4)cccc3n2)ccc1Cl,2170 nM,5920 nM
Cn1ncc2c(Nc3ccc(Br)cc3)nc(Nc3ccc(Br)cc3)nc21,2110 nM,7780 nM
OCCN1CCN(CCCN2c3ccccc3Sc3ccc(C(F)(F)F)cc32)CC1,827 nM and 3630 nM and 2630 nM,2080 nM and 15400 nM and 11300 nM
Cc1c(Cl)cccc1NC(=O)CC1Sc2ccccc2NC1=O (centres undefined),12800 nM,37400 nM
Brc1c[n+](Cc2ccc3ccccc3c2)cn1Cc1ccc2ccccc2c1,624 nM,2570 nM
c1ccc2c(c1)O[As](O[As]1Oc3ccccc3O1)O2,1250 nM,4040 nM
Cn1cc(-c2cc3c(Nc4ccc(CC(=O)Nc5cc(C(C)(C)C)on5)cc4)ncnc3[nH]2)cn1,325 nM and 242 nM,1080 nM and 737 nM
CN1CCN(c2ccc(Nc3nc(NCCCNS(=O)(=O)c4cccc5ccccc45)c4sccc4n3)cc2)CC1,2100 nM,6230 nM
COc1ccc(-c2nc(-c3nc4ccc(F)cc4[nH]3)cc3c2[nH]c2ccccc23)cc1,2080 nM,> 100000 nM
O=C1C=C(SCCO)C(=O)c2ccccc21,1510 nM,3460 nM
COc1cnc2c(c1)C(=O)c1c-2n(CCCn2ccnc2)c(=O)c2cc(OC)c(OC)cc12,51.1 nM,358 nM
Cc1ccc(NS(=O)(=O)c2ccc(-c3cnc(C4CC4)o3)cc2)cc1,1170 nM,5830 nM
O=C(NCc1cn(Cc2cccc(Oc3ccccc3)c2)nn1)c1cccnc1Nc1ccccc1,2880 nM,57400 nM
ClCCN(CCCl)Cc1ccc(Nc2ccnc3cc(Cl)ccc23)cc1,702 nM,2990 nM
Cc1ccc(S(=O)(=O)N(C)C)cc1[N+](=O)[O-],> 100000 nM,> 100000 nM
COC1=CC(c2ccc[nH]2)=N/C1=C\c1[nH]c(C)c(C(=O)CCC(=O)Oc2ccc3c(c2)CCC2C3CC[C@]3(C)C(=O)CC[C@@H]23)c1C (some centres undefined),16900 nM,> 100000 nM
C[C@@H]1O[C@@H](O[C@H]2C[C@@H](O)[C@]3(CO)C4C(CC[C@]3(O)C2)[C@@]2(O)CC[C@H](C3=CC(=O)OC3)[C@@]2(C)C[C@H]4O)[C@H](O)[C@H](O)[C@H]1O (some centres undefined),84.1 nM,187 nM

SMILES,GI50,TGI
CCOc1ccc(NC(=O)Nc2cc(C(C)C)ccc2C)cc1,5670 nM,51800 nM
COc1cc(-c2c3c(cn2S(=O)(=O)c2ccccc2)-c2nc(N)sc2CC3)cc(OC)c1OC,426 nM,22200 nM
O=C(NNc1nc2cc(F)ccc2n2c(CN3CCOCC3)ccc12)c1ccccc1,193 nM,894 nM
O=C1Nc2ccc(F)c3c(OCCO)cc(-c4ccc[nH]4)c1c23,528 nM,1830 nM
C=C1C(=O)O[C@H]2[C@H]1CC/C(COC(=O)OCCCCCOC(=O)OC/C1=C/CC[C@@]3(C)O[C@H]3[C@H]3OC(=O)C(=C)[C@@H]3CC1)=C\CC[C@@]1(C)O[C@@H]21,186 nM,458 nM
O=C(c1ccccc1)c1ccc(-c2ccc(O)cc2)cc1,1940 nM,8860 nM
CCCC[C@@H]1NC(=O)[C@H](CCCCN)NC(=O)[C@H](CCCNC(=N)N)NC(=O)[C@H](CC(C)C)NC(=O)[C@@H](NC(=O)[C@H](Cc2cccc(Cl)c2)NC(=O)[C@@H]2CCCN2C(=O)[C@@H](NC(C)=O)C(C)C)CCSSC[C@@H](C(=O)N[C@@H](CCCCN)C(=O)N2CCC[C@H]2C(=O)N2CCC[C@H]2C(=O)N[C@@H](CCC(=O)O)C(N)=O)NC(=O)[C@H](Cc2ccccc2)NC(=O)[C@H](CO)NC(=O)[C@H](C)NC(=O)[C@@H]2CCCN2C1=O,> 50000 nM,> 50000 nM
COc1ccc(OC)c(/C=C/[N+](=O)[O-])c1,1220 nM,2680 nM
COc1ccc2c(c1)O/C(=C\c1cccc(OCC(=O)Nc3nc4ccccc4s3)c1)C2=O,6040 nM,> 100000 nM
COc1cc(O)c2c(c1)[C@H]1O[C@@H]1C[C@H](O)[C@H](O)C(=O)/C=C\C[C@H](C)OC2=O,1100 nM,5640 nM
COC[C@H]1C(=O)NCC(=O)N2NCCC[C@H]2C(=O)N(O)[C@H](C)C(=O)O[C@@H](C(C)C)[C@H](NC(=O)[C@](C)(O)[C@]2(O)CC[C@@H](CC(C)C)[C@H](C)O2)C(=O)N2NCCC[C@@H]2C(=O)N1O,14 nM,31.1 nM
OCC1SC(n2cnc3cncnc32)C(O)C1O (centres undefined),> 100000 nM,> 100000 nM
COCCNCC(O)Cn1c2ccc(Cl)cc2c2cc(Cl)ccc21 (centres undefined),1780 nM,3850 nM
O=C(CC12CC3CC(CC(C3)C1)C2)NCCOCCOCCNC(=O)c1cc2c(o1)C(=O)c1ccccc1C2=O,1210 nM,3300 nM
Cn1ncc2cc(-c3cnc(N)c(Cl)c3N3CCC4(CCNC4=O)CC3)ccc21,16400 nM,63100 nM
CS(=O)(=O)c1nccc(-c2c(-c3cccc(OCc4ccc(F)cc4)c3)nc3sccn23)n1,1990 nM,3980 nM
O=C1C(=O)c2ccc(Br)cc2-c2cc(Br)ccc21,604 nM,1430 nM
CCC(=O)Sc1ccccc1C(=O)Nc1ccc(Cl)cc1,9970 nM,> 100000 nM
O=S(=O)(Nc1ccc(-c2nc(-c3cccc(OCCN4CCOCC4)c3)c(-c3ccnc(Br)c3)[nH]2)cc1)c1ccccc1,1850 nM,5240 nM
CCCOC(=O)N[C@H]1CCc2c(Br)c(OC)c(OC)c(OC)c2-c2ccc(SC)c(=O)cc21,< 10 nM,18100 nM
O=C1Nc2ccc(Cl)cc2/C1=C\c1c(-c2ccc(F)cc2)nc2ccccn12,2080 nM,6190 nM
CC1(C)CCC(S(=O)(=O)c2ccc3c(c2)/C(=N\O)c2cc(S(=O)(=O)N4CCC(O)(c5cccc(C(F)(F)F)c5)CC4)ccc2-3)CC1,17.6 nM,35.6 nM
Cc1nc2sc(C(=O)Nc3cccc4ccccc34)c(N)c2cc1C(C)O (centres undefined),126 nM,416 nM
